Series [1] concerns HepG2. In words: Cytotoxicity against human HepG2 cells assessed as reduction in cell viability measured upto 72 hrs by MTT assay. Format: functional, cell-based. The settings on record: HepG2, 72 h. (Tetrazolium dyes change colour on reduction, which living cells bring about.)
The nature of series [2]: Cytotoxicity against human HCCLM3 cells assessed as reduction in cell viability measured upto 72 hrs by MTT assay. The format is functional, cell-based. The settings on record: HCCLM3, 72 h.
Series [3] concerns HCCLM3. In words: Cytotoxicity against human HCCLM3 cells assessed as cell viability up to 50 uM measured upto 72 hrs by MTT assay. The settings on record: dose microM <=50, time hrs <=72. Format: functional, cell-based.
Series [4] concerns the target Signal transducer and activator of transcription 3 (Homo sapiens) (UniProt P40763). In words: Inhibition of STAT3 in human HepG2 cell lysate assessed as suppression of STAT3-DNA interaction at 25 uM by ELISA. Format: subcellular. Particulars: time hrs <=12, TDE = time-dependent effect. (ELISA stands for enzyme-linked immunosorbent assay.)
The test system of series [5] is HepG2. In words: Antimigratory activity against human HepG2 cells assessed as inhibition of cell migration at 50 uM. The format is functional, cell-based.
Series [6] has as its system HCCLM3. In words: Antimigratory activity against human HCCLM3 cells assessed as inhibition of cell migration at 50 uM. The format is functional, cell-based.
The subject of series [7] is HCCLM3. In words: Induction of apoptosis in human HCCLM3 cells assessed as decrease in Cyclin D1 expression at 25 uM by measured up to 48 hrs Western blot analysis. The format is functional, cell-based. Particulars: time hrs <=48. A general note: In western blotting, separated proteins are transferred to a membrane and probed.
In series [8] the test system is HepG2. In words: Antimigratory activity against human HepG2 cells assessed as inhibition of cell migration at 50 uM in presence of CXCL12. Format: functional, cell-based.
Series [9] deals with T1, Signal transducer and activator of transcription 5A (Homo sapiens) (UniProt P42229).
T1 sequence (whole entry): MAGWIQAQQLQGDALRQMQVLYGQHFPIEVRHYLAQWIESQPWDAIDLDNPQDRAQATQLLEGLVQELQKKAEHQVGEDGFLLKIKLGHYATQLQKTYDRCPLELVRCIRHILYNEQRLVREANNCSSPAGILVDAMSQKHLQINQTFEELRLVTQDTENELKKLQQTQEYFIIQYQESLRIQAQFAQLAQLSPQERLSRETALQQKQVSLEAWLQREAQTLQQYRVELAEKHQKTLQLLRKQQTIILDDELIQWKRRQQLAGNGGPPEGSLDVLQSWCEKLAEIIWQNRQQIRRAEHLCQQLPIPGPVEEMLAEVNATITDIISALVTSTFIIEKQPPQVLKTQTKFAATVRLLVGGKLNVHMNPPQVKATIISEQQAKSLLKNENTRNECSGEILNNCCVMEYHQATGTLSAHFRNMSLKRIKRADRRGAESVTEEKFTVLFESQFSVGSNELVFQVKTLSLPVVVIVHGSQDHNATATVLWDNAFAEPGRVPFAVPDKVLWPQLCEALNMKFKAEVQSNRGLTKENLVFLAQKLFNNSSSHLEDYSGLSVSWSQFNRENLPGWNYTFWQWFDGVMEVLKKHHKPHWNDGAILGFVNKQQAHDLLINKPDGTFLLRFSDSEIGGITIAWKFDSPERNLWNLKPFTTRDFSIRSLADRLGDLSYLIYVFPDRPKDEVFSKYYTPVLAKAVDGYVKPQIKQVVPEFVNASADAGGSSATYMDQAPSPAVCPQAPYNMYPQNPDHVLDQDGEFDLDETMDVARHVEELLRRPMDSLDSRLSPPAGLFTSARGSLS
In words: […] in human HepG2 cells assessed as decrease in STAT3 phosphorylation at Y694 residue at 25 uM by Western blot analysis. The format is cell-based.

The target in series [10] is Signal transducer and activator of transcription 3 (Homo sapiens) (UniProt P40763). In words: Inhibition of STAT3 activation in human HCCLM3 cells assessed as decrease in STAT3 phosphorylation at Y705 residue at 25 uM by Western blot analysis. The format is cell-based. The settings on record: time hrs <=12, TDE = time-dependent effect.
Signal transducer and activator of transcription 3 (Homo sapiens), sequence (P40763 whole entry): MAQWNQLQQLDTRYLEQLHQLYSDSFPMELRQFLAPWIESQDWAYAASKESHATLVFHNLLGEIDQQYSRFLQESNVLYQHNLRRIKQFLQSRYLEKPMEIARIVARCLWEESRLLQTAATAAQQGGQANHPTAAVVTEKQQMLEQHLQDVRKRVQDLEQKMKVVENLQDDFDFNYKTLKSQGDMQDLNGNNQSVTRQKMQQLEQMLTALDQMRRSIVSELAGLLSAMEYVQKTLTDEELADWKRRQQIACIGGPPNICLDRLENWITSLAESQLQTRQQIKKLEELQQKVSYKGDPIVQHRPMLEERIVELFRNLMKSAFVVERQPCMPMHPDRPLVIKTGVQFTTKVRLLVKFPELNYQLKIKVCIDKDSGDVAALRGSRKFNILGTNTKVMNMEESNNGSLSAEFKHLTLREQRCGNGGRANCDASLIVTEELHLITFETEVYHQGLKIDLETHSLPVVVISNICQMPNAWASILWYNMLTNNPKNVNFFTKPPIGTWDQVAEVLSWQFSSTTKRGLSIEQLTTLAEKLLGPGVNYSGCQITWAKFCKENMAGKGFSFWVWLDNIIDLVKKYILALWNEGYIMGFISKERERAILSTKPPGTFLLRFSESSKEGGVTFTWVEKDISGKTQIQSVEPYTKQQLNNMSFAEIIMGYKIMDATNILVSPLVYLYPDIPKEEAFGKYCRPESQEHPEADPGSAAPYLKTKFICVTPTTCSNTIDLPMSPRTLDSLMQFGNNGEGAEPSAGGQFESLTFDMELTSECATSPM
Series [11] concerns HCCLM3. In words: Induction of apoptosis in human HCCLM3 cells assessed as decrease in Survivin expression at 25 uM by measured up to 48 hrs Western blot analysis. The format is functional, cell-based. The settings on record: time hrs <=48.
In series [12] the test system is HCCLM3. In words: Induction of apoptosis in human HCCLM3 cells assessed as increase in Cleaved caspase-3 expression at 25 uM by measured up to 48 hrs Western blot analysis. Particulars: time hrs <=48. The format is functional, cell-based.
Series [13] concerns the target Signal transducer and activator of transcription 3 (Homo sapiens) (UniProt P40763). In words: Inhibition of STAT3 activation in human HepG2 cells assessed as decrease in STAT3 phosphorylation at Y705 residue at 25 uM by Western blot analysis. Format: cell-based. Particulars: time hrs <=12, TDE = time-dependent effect.
Series [14] relates to HCCLM3. In words: Antiinvasive activity in human HCCLM3 cells at 50 nM incubated for 8 hrs in presence of CXCL12 by crystal violet staining based assay. Format: functional, cell-based.
Series [15] relates to HepG2. In words: Induction of cell cycle arrest in human HepG2 cells assessed as accumulation sub-G1 phase at 50 uM incubated for 24 hrs by propidium iodide staining based flow cytometry analysis relative to control. Format: functional.
The subject of a further series is L02. In words: Cytotoxicity against human L02 cells assessed as cell viability measured by MTT assay. The format is cell-based.
The target of series [16] is T1, Signal transducer and activator of transcription 5A (Homo sapiens). In words: […] in human HCCLM3 cells assessed as decrease in STAT3 phosphorylation at Y694 residue at 25 uM by Western blot analysis. Format: cell-based.
For series [17], the system named is HepG2. In words: Cytotoxicity against human HepG2 cells assessed as cell viability up to 50 uM measured upto 72 hrs by MTT assay. The format is functional, cell-based. The settings on record: dose microM <=50, time hrs <=72.
Series [18] relates to HCCLM3. In words: Antimigratory activity against human HCCLM3 cells assessed as inhibition of cell migration at 50 uM in presence of CXCL12. Format: functional, cell-based.
A short description of series [19]: Induction of cell cycle arrest in human HCCLM3 cells assessed as accumulation sub-G1 phase at 50 uM incubated for 48 hrs by propidium iodide staining based flow cytometry analysis relative to control. The format is functional.
The subject of series [20] is HepG2. In words: Antiinvasive activity in human HepG2 cells at 50 nM incubated for 8 hrs in presence of CXCL12 by crystal violet staining based assay. The format is functional, cell-based.
Series [21] has as its system HepG2. In words: Induction of cell cycle arrest in human HepG2 cells assessed as accumulation sub-G1 phase at 50 uM incubated for 48 hrs by propidium iodide staining based flow cytometry analysis relative to control. Format: functional.
Series [22] has as its target Signal transducer and activator of transcription 3 (Homo sapiens) (UniProt P40763). In words: Inhibition of STAT3 in human HCCLM3 cell lysate assessed as suppression of STAT3-DNA interaction at 25 uM by ELISA. The format is subcellular. The settings on record: time hrs <=12, TDE = time-dependent effect.
Series [23] can be described thus: Induction of cell cycle arrest in human HCCLM3 cells assessed as accumulation sub-G1 phase at 50 uM incubated for 24 hrs by propidium iodide staining based flow cytometry analysis relative to control. Format: functional.
Series [24] in a line: Induction of cell cycle arrest in human HCCLM3 cells assessed as accumulation sub-G1 phase at 50 uM incubated for 72 hrs by propidium iodide staining based flow cytometry analysis relative to control. The format is functional.
Series [25] has as its system HCCLM3. In words: Induction of apoptosis in human HCCLM3 cells assessed as decrease in Bcl2 expression at 25 uM by measured up to 48 hrs Western blot analysis. Format: functional, cell-based. Particulars: time hrs <=48.
Series [26] deals with HepG2. In words: Induction of cell cycle arrest in human HepG2 cells assessed as accumulation sub-G1 phase at 50 uM incubated for 72 hrs by propidium iodide staining based flow cytometry analysis relative to control. The format is functional.

SMILES strings stand for the structures. Activity calls are given as the source filed them. No cut-off for these calls is given here.

For the compound `CC(C)Oc1cccc(-c2cc(=O)n(C)c(=O)[nH]2)c1`, the IC50 was 47.6 µM in the series on HepG2 [1] and 41.5 µM in series [2].

Turning to `Cn1c(=O)cc(-c2cccc3ccccc23)[nH]c1=O`, the Activity entry in the series with HCCLM3 [3] was “Dose-Dependent Effect”; in the series with HepG2 [15], 39.3%; in the series on L02, “Toxic”; in the series with HepG2 [17], “Dose-Dependent Effect”; in series [19] it was 46.5%; in the series on HepG2 [21] it was 46.5%. In addition, the values for the Activity (in [23]; in series [24]; in the series with HepG2 [26]) were 39.3%, 67.3% and 67.3%, respectively. Moreover, the inhibition entry in series [4], in [10], in [13] and in [22] was “Tde” throughout. In addition, the outcome with HepG2 [5], in the series on HCCLM3 [6], in the series with HCCLM3 [7], in the series with HepG2 [8], in the series with HCCLM3 [11] and in the series with HCCLM3 [12] was Active. The result in the series with HCCLM3 [14], in the series on HCCLM3 [18], with HepG2 [20] and in the series on HCCLM3 [25] was Active. Also, the inhibition result in [9] and in series [16] was “inactive” in each case. The IC50 in the series with HepG2 [1] was 20.9 µM; in series [2], 42.6 µM.

Take `C[C@H](NC(=O)/C(C#N)=C/c1cccc(Br)n1)c1ccccc1`: the Activity entry with HCCLM3 [3] and in the series on HepG2 [17] was “Dose-Dependent Effect” throughout.

The term IC50 denotes the concentration needed to halve the response being measured.

For the origin of these results see ChEMBL document CHEMBL4825749, “Pyrimidine-2,4-dione targets STAT3 signaling pathway to induce cytotoxicity in hepatocellular carcinoma cells” (Bioorg Med Chem Lett, 2021).
